Test results from patent US9062045B2, “Triazolopyridine compounds” (Novartis AG, priority 2012, dated 2015).

Experiments:
[1] = system: GTL16 cells; experiment: GTL16 cell viability assay (CellTiter Glo); conditions: read-out: GTL-16 Proliferation IC50; GTL16 cells, 24 hours
Description: GTL16 Cell Viability Assay:
GTL16 expresses high level of c-Met receptor tyrosine kinase due to the gene amplification.
GTL16 cells were seeded in DMEM medium with 10% FBS and 1% Pene. & Strep. at 5000 cells/well/90 μL in 96 well plate and incubated overnight for attachment at 37° C. in 5% CO2 incubator. 10-fold serials dilutions of compounds were added to the cell as 10 μL/well. The final assay volume was 100 μl/well. The assay plates were incubated at 37° C. in 5% CO2 incubator for 24 hours. […] The chemiluminescent light unit was read in Envision from Perkin Elmer. All the tests were run at triplicates. The IC50 was calculated using Spotfire software.

[2] = biological target: human platelet PDE3 (Homo sapiens (Human), UniProt Q14432); experiment: hPDE3 assay ([3H]cAMP scintillation proximity assay); assay type: biochemical; conditions: human platelet PDE3
Description: Here, compounds of formula I were screened for their ability to inhibit human PDE3 in the assay based on Amersham Pharmacia Biotech's Phosphodiesterase (PDE) [^3H]-adenosine 3′,5′ cyclic phosphate ([^3H]cAMP) Scintillation Proximity Assay (SPA). The assay is based on the hydrolysis of [^3H]cAMP, by human platelet PDE3, to [^3H]5′-adenoside monophosphate (5′-AMP). The [^3H]5′-AMP is specifically captured by yttrium silicate SPA beads in the presence of zinc sulphate.
• Optiplate and TopSeal-S (Can berra Packard) • Human platelet PDE3 (partially purified from human platelets)—a titration curve of human platelet PDE3 activity was performed to optimise the concentration of hPDE3 required in the assay. • Yttrium silicate SPA beads and [^3H]cAMP (Amersham) • Tris-Base, magnesium chloride, ethylenediaminetetraacetic acid (di-sodium salt), bovine serum albumin BSA and cAMP (Sigma) Solutions and Buffers: • Assay buffer: 7.56 g Tris-Base was dissolved in approximately 800 mL distilled water and the pH adjusted to 7.5 with 1 M hydrochloric acid. 10.3 mL 1 M magnesium chloride and 4.25 mL 0.5 M EDTA were added. The solution was made to 1 L with distilled water and stored at 4° C. On day of use 18 mL of the above solution was removed and 2 mL 5 mg/ml BSA were added thereto. • Enzyme buffer: 10 mM Tris-HCl at pH 7.5, 1 mM EDTA • Yttrium silicate SPA beads: 1 vial was reconstituted in 28 mL distilled water and stored at 4° C. Assay
The assay was performed in a final volume of 100 μL per well of an Optiplate (Canberra Packard). A 10 μL aliquot of the test compound dissolved in DMSO/distilled water was placed in a well of an Optiplate plate, followed by the addition of 80 μL ‘Assay mix’ (5.5 μL [^3H]cAMP and 88 μL “cold” cAMP were diluted to 8.8 mL using assay buffer). The reaction was started by adding 10 μL hPDE3 (50 μL stock hPDE3 solution was diluted 50 fold to 2.5 mL using enzyme buffer). The plate was incubated at room temperature for 30 min, the reaction was then terminated by the addition of 50 μL Yttrium silicate SPA beads (pre-warmed to room temperature) to all wells. […] The plate was sealed using TopSeal-S according to the manufacturer's instructions and counted using a Packard TopCount, each well being counted for 1 min. IC50 values were determined using non-linear regression.

[3] = biological target: c-Met receptor tyrosine kinase, GST-c-MET (969-1390) (Homo sapiens (Human), UniProt P08581); conditions: read-out: c-Met Biochem IC50; 2 μM ATP, 60 minutes at room temperature
c-Met receptor tyrosine kinase, GST-c-MET (969-1390), sequence (P08581 969-1390): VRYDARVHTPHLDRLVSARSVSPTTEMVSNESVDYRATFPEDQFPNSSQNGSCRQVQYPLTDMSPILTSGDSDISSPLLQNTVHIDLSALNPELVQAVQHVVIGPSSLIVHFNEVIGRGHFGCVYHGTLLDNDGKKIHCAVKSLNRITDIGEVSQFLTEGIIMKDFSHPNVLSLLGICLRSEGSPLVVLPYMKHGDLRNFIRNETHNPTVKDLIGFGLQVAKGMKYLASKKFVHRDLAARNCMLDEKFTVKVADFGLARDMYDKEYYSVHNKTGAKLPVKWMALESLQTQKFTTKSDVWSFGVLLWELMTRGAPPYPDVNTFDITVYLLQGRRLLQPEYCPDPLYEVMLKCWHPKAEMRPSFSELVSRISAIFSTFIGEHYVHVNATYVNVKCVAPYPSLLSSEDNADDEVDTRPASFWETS
Description: A number of compounds of the present invention were assayed in an antibody based kinase phosphorylation assay as follows.
The EPK kinase assay for c-Met receptor tyrosine kinase was developed, using the purified recombinant GST-fusion protein, containing the cytoplasmic domain of the enzyme.
The kinase assay is based on the LanthaScreen™ technology.
The kinase reactions were performed in 384 well microtiter plates in a total reaction volume of 10.05 μL. The assay plates were prepared with 0.05 μL per well of test compound in the appropriate test concentration, as described under “preparation of compound dilutions”. The reactions were started by combining 5 μL of ATP solution with 5 μL of enzyme-substrate mix (consisting of kinase and substrate). […] Subsequently 5 μL of detection mix (50 mM Tris/HCl, 2 mM DTT, 0.05% Tween20, 20 μM sodium orthovanadate, 1% BSA, 1 nM Tb-PY20 antibody) were added to the stopped reactions. After 45 minutes incubation in dark at room temperature, the plates were measured in a Perkinelmer Envision fluorescence reader.

human platelet PDE3, sequence (Q14432 whole entry): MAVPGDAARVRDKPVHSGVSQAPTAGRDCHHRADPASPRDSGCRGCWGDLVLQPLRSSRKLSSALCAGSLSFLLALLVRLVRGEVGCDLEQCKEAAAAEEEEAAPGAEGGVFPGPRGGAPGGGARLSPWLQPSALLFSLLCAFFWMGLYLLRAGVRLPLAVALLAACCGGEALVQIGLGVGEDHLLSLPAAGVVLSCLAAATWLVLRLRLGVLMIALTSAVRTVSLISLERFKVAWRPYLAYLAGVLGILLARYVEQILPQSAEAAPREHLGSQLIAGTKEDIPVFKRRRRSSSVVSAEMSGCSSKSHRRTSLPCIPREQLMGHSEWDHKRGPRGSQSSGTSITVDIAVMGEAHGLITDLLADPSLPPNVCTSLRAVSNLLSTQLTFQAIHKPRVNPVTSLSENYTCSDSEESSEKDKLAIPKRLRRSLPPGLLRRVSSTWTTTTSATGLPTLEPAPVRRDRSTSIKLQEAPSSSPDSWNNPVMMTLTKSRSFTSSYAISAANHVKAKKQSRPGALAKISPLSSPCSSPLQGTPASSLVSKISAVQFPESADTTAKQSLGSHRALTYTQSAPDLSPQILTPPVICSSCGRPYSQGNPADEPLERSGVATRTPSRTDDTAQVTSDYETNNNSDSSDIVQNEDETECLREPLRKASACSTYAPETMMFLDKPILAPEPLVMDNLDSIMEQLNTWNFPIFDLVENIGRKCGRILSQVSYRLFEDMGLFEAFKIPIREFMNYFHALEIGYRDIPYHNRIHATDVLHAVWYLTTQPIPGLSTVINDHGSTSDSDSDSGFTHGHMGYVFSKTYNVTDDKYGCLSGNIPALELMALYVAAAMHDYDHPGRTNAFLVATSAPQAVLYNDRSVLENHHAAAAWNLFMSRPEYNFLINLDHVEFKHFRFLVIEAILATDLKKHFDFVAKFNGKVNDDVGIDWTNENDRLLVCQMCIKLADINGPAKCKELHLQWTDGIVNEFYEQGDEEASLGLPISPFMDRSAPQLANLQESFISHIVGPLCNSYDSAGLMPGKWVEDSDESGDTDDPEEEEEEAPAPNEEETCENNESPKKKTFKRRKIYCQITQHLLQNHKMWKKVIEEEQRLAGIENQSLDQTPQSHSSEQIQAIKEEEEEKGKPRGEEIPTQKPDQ

`CN1CCC(Nc2cnc3ccc(Sc4nnc5ccc(-c6cnn(C)c6)cn45)cc3c2)CC1` [Example 15, (1-Methyl-piperidin-4-yl)-{6-[6-(1-methyl-1H-pyrazol-4-yl)-[1,2,4]triazolo[4,3-a]pyridin-3-ylsulfanyl]-quinolin-3-yl}-amine] gave an IC50 [1] of 0.002 µM and an IC50 [2] of 30 µM.
In the case of `Cn1cc(-c2ccc3nnc(Sc4ccc5ncc(NC6CCN(C(=O)OC(C)(C)C)CC6)cc5c4)n3c2)cn1` [Example 22, tert-Butyl 4-(6-(6-(1-methyl-1H-pyrazol-4-yl)-[1,2,4]triazolo[4,3-a]pyridin-3-ylthio)quinolin-3-ylamino)piperidine-1-carboxylate], the IC50 [1] is reported as 0.002 µM, the IC50 [3] is reported as 0.019 µM and the IC50 [2] is reported as 15 µM.
Molecule `Cn1cc(-c2ccc3nnc(Sc4ccc5ncc(NC6CCNCC6)cc5c4)n3c2)cn1` [Example 23, 6-(6-(1-Methyl-1H-pyrazol-4-yl)-[1,2,4]triazolo[4,3-a]pyridin-3-ylthio)-N-(piperidin-4-yl)quinolin-3-amine] has an IC50 [1] of 0.289 µM and an IC50 [2] of 30 µM.
`Cn1cc(-c2ccc3nnc(Sc4ccc5ncc(N6CCNCC6)cc5c4)n3c2)cn1` [Example 27, 6-(6-(1-Methyl-1H-pyrazol-4-yl)-[1,2,4]triazolo[4,3-a]pyridin-3-ylthio)-3-(piperazin-1-yl)quinoline] gave an IC50 [1] of 0.004 µM and an IC50 [2] of 17 µM.
With `Cn1cc(-c2ccc3nnc(Sc4ccc5ncc(N6CCC(N7CCCCC7)CC6)cc5c4)n3c2)cn1` [Example 30, 3-(1,4′-Bipiperidin-1′-yl)-6-(6-(1-methyl-1H-pyrazol-4-yl)-[1,2,4]triazolo[4,3-a]pyridin-3-ylthio)quinoline] the IC50 [1] was 0.002 µM, the IC50 [3] was […] and the IC50 [2] was 25 µM.
For `Cn1cc(-c2cc(F)c3nnc(Sc4ccc5ncc(N6CCC(N7CCCCC7)CC6)cc5c4)n3c2)cn1` [Example 31, 3-(1,4′-Bipiperidin-1′-yl)-6-(8-fluoro-6-(1-methyl-1H-pyrazol-4-yl)-[1,2,4]triazolo[4,3-a]pyridin-3-ylthio)quinoline], the IC50 [1] was 0.0004 µM, the IC50 [3] was 0.003 µM and the IC50 [2] was 30 µM.
`Cn1cc(-c2ccc3nnc(Sc4ccc5ncc(N6CCN(C7CCCCC7)CC6)cc5c4)n3c2)cn1` [Example 32, 3-(4-Cyclohexylpiperazin-1-yl)-6-(6-(1-methyl-1H-pyrazol-4-yl)-[1,2,4]triazolo[4,3-a]pyridin-3-ylthio)quinoline] showed an IC50 [1] of 0.004 µM, an IC50 [3] of […] and an IC50 [2] of 26 µM.
In the case of `Cn1cc(-c2ccc3nnc(Sc4ccc5ncc(N6CCN(c7ccccc7)CC6)cc5c4)n3c2)cn1` [Example 34, 6-(6-(1-Methyl-1H-pyrazol-4-yl)-[1,2,4]triazolo[4,3-a]pyridin-3-ylthio)-3-(4-phenylpiperazin-1-yl)quinoline], the IC50 [1] is reported as 0.001 µM, the IC50 [3] is reported as 0.045 µM and the IC50 [2] is reported as 30 µM.
In the case of `CC1CN(c2cnc3ccc(Sc4nnc5ccc(-c6cnn(C)c6)cn45)cc3c2)CCO1` (centres unmarked) [Example 35, 2-Methyl-4-(6-(6-(1-methyl-1H-pyrazol-4-yl)-[1,2,4]triazolo[4,3-a]pyridin-3-ylthio)quinolin-3-yl)morpholine], the IC50 [1] is reported as 0.0004 µM and the IC50 [3] is reported as 0.004 µM.
For `C[C@H]1CN(c2cnc3ccc(Sc4nnc5ccc(-c6cnn(C)c6)cn45)cc3c2)CCO1` [Example 35A, (S)-2-Methyl-4-(6-(6-(1-methyl-1H-pyrazol-4-yl)-[1,2,4]triazolo[4,3-a]pyridin-3-ylthio)quinolin-3-yl)morpholine], the IC50 [1] was 0.001 µM, the IC50 [3] was 0.005 µM and the IC50 [2] was 16 µM.
`C[C@@H]1CN(c2cnc3ccc(Sc4nnc5ccc(-c6cnn(C)c6)cn45)cc3c2)CCO1` [Example 35B, (R)-2-Methyl-4-(6-(6-(1-methyl-1H-pyrazol-4-yl)-[1,2,4]triazolo[4,3-a]pyridin-3-ylthio)quinolin-3-yl)morpholine] was tested, and the IC50 [1] was 0.004 µM and the IC50 [3] was 0.004 µM.
Work on `C[C@H]1CNCCN1c1cnc2ccc(Sc3nnc4c(F)cc(-c5cnn(C)c5)cn34)cc2c1` [Example 46, (S)-6-(8-Fluoro-6-(1-methyl-1H-pyrazol-4-yl)-[1,2,4]triazolo[4,3-a]pyridin-3-ylthio)-3-(2-methylpiperazin-1-yl)quinoline] yielded an IC50 [3] of […] and an IC50 [2] of 30 µM.
Molecule `Cn1cc(-c2ccc3nnc(Sc4ccc5ncc(N6CCC7(CCOCC7)C6)cc5c4)n3c2)cn1` [Example 47, 2-(6-((6-(1-Methyl-1H-pyrazol-4-yl)-[1,2,4]triazolo[4,3-a]pyridin-3-yl)thio)quinolin-3-yl)-8-oxa-2-azaspiro[4.5]decane] has an IC50 [1] of 0.003 µM and an IC50 [2] of 12 µM.
`Cn1cc(-c2cc(F)c3nnc(Sc4ccc5ncc(N6CCC(O)CC6)cc5c4)n3c2)cn1` [Example 50, 1-(6-((8-Fluoro-6-(1-methyl-1H-pyrazol-4-yl)-[1,2,4]triazolo[4,3-a]pyridin-3-yl)thio)quinolin-3-yl)piperidin-4-ol] showed an IC50 [1] of 0.001 µM and an IC50 [2] of 30 µM.
In the case of `Cn1cc(-c2ccc3nnc(Sc4ccc5ncc(NC6CCOC6)cc5c4)n3c2)cn1` (centres unmarked) [Example 51], the IC50 [1] is reported as 0.009 µM and the IC50 [2] is reported as 7 µM.
For `Cn1cc(-c2ccc3nnc(Sc4ccc5ncc(NCCO)cc5c4)n3c2)cn1` [Example 53, 2-(6-(6-(1-methyl-1H-pyrazol-4-yl)-[1,2,4]triazolo[4,3-a]pyridin-3-ylthio)quinolin-3-ylamino)ethanol], the IC50 [1] was 0.017 µM and the IC50 [2] was 14 µM.
`Cn1cc(-c2ccc3nnc(Sc4ccc5ncc(N6CCC(F)(F)CC6)cc5c4)n3c2)cn1` [Example 61, 3-(4,4-Difluoro-piperidin-1-yl)-6-[6-(1-methyl-1H-pyrazol-4-yl)-[1,2,4]triazolo[4,3-a]pyridin-3-ylsulfanyl]-quinoline] was tested, and the IC50 [1] was 0.002 µM and the IC50 [2] was 12 µM.
`Cn1cc(-c2ccc3nnc(Sc4ccc5ncc(NC6CC(C)(C)NC(C)(C)C6)cc5c4)n3c2)cn1` [Example 62, 6-(6-(1-Methyl-1H-pyrazol-4-yl)-[1,2,4]triazolo[4,3-a]pyridin-3-ylthio)-N-(2,2,6,6-tetramethylpiperidin-4-yl)quinolin-3-amine] gave an IC50 [1] of 0.073 µM and an IC50 [2] of 18 µM.
`Cn1cc(-c2ccc3nnc(Sc4ccc5ncc(NC6CCOCC6)cc5c4)n3c2)cn1` [Example 68, {6-[6-(1-Methyl-1H-pyrazol-4-yl)-[1,2,4]triazolo[4,3-a]pyridin-3-ylsulfanyl]-quinolin-3-yl}-(tetrahydro-pyran-4-yl)-amine] gave an IC50 [1] of 0.003 µM and an IC50 [2] of 10 µM.
`C/C(=N\OCCO)c1ccc2nnc(Sc3ccc4ncc(N5CCC(O)CC5)cc4c3)n2c1` [Example 76, (E)-1-(3-((3-(4-Hydroxypiperidin-1-yl)quinolin-6-yl)thio)-[1,2,4]triazolo[4,3-a]pyridin-6-yl)-ethanone O-(2-hydroxyethyl)oxime] gave an IC50 [1] of 0.054 µM and an IC50 [2] of 14 µM.
`C/C(=N\O)c1ccc2nnc(Sc3ccc4ncc(N5CCOCC5)cc4c3)n2c1` [Example 77, (E)-1-(3-((3-Morpholin-4-yl-quinolin-6-yl)thio)-[1,2,4]triazolo[4,3-a]pyridin-6-yl)ethanone oxime] gave an IC50 [1] of 0.008 µM and an IC50 [2] of 12 µM.
Work on `C/C(=N\OCCO)c1ccc2nnc(Sc3ccc4ncc(NC5CCOCC5)cc4c3)n2c1` [Example 83, (E)-1-(3-(3-(Tetrahydro-2H-pyran-4-ylamino)quinolin-6-ylthio)-[1,2,4]triazolo[4,3-a]pyridin-6-yl)ethanone O-2-hydroxyethyl oxime] yielded an IC50 [1] of 0.001 µM and an IC50 [2] of 20 µM.
Molecule `C/C(=N\O)c1ccc2nnc(Sc3ccc4ncc(NC5CCOCC5)cc4c3)n2c1` [Example 84, (E)-1-(3-(3-(Tetrahydro-2H-pyran-4-ylamino)quinolin-6-ylthio)-[1,2,4]triazolo[4,3-a]pyridin-6-yl)ethanone oxime] has an IC50 [1] of 0.003 µM and an IC50 [2] of 6 µM.
`C/C(=N\OCCO)c1cc(F)c2nnc(Sc3ccc4ncc(N5CC[C@H](N(C)C)C5)cc4c3)n2c1` [Example 85, (S,E)-1-{3-[3-(3-dimethylamino-pyrrolidin-1-yl)-quinolin-6-ylthio]-8-fluoro-[1,2,4]triazolo[4,3-a]pyridin-6-yl}ethanone O-(2-hydroxy-ethyl)-oxime] gave an IC50 [1] of 0.023 µM and an IC50 [2] of 30 µM.
Molecule `C/C(=N\OCCO)c1ccc2nnc(Sc3ccc4ncc(N5CCN(C)CC5)cc4c3)n2c1` [Example 86, (E)-1-(3-(3-(4-methylpiperazin-1-yl)quinolin-6-ylthio)-[1,2,4]triazolo[4,3-a]pyridin-6-yl)ethanone O-2-hydroxyethyl oxime] has an IC50 [1] of 0.051 µM and an IC50 [2] of 27 µM.
